Assay results taken from the NIST ThermoML archive (doi:10.1016/j.fluid.2018.01.025).
Numbers after ± are expanded uncertainties.

What was measured:
[1] = 101.33 kPa, Liquid; for speed of sound: Frequency=2 MHz, Linear variable-path acoustic interferometer; for mass density: Vibrating tube method
[2] = xn = mol fraction of the nth substance listed; settings: 101 kPa, Liquid; for speed of sound: Frequency=2 MHz, Linear variable-path acoustic interferometer; for mass density: Vibrating tube method

CNc1ccccc1 [N-methylaniline]
[1]
Settings | mass density [kg/m3] | speed of sound [m/s]
303.15 K | 981.72 ± 0.44 | 1549 ± 2
308.15 K | 976.04 ± 0.44 | –
313.15 K | 970.89 ± 0.44 | 1511 ± 2
318.15 K | 965.81 ± 0.44 | –
323.15 K | 961.13 ± 0.44 | –

Nc1cccc(Cl)c1 [3-chlorobenzenamine]
[1]
Settings | mass density [kg/m3] | speed of sound [m/s]
303.15 K | 1205.75 ± 0.58 | 1516 ± 2
308.15 K | 1201.14 ± 0.58 | –
313.15 K | 1196.56 ± 0.58 | 1484 ± 2
318.15 K | 1191.98 ± 0.57 | –
323.15 K | 1187.41 ± 0.57 | –

Nc1ccccc1Cl [2-chlorobenzeneamine] + OCc1ccccc1
[2]
Settings | mass density, 303.15 K [kg/m3] | mass density, 308.15 K [kg/m3] | mass density, 313.15 K [kg/m3] | mass density, 318.15 K [kg/m3] | mass density, 323.15 K [kg/m3] | speed of sound, 303.15 K [m/s] | speed of sound, 313.15 K [m/s]
x2 = 0.1018 | 1188.36 ± 0.51 | 1183.05 ± 0.51 | 1178.05 ± 0.51 | 1172.74 ± 0.51 | 1167.93 ± 0.51 | 1470.9 ± 9 | 1440.8 ± 8.8
x2 = 0.2031 | 1173.95 ± 0.49 | 1168.26 ± 0.49 | 1162.88 ± 0.49 | 1157.37 ± 0.49 | 1152.55 ± 0.48 | 1474.4 ± 9 | 1445.4 ± 8.8
x2 = 0.3041 | 1158.94 ± 0.47 | 1153 ± 0.47 | 1147.35 ± 0.47 | 1141.76 ± 0.47 | 1136.87 ± 0.47 | 1478 ± 9 | 1450.2 ± 8.8
x2 = 0.4047 | 1143.31 ± 0.46 | 1137.27 ± 0.46 | 1131.48 ± 0.45 | 1125.89 ± 0.45 | 1121.03 ± 0.45 | 1482.1 ± 9 | 1455 ± 8.9
x2 = 0.5049 | 1126.98 ± 0.44 | 1121.04 ± 0.44 | 1115.21 ± 0.44 | 1109.7 ± 0.44 | 1104.91 ± 0.44 | 1486.4 ± 9.1 | 1459.9 ± 8.9
x2 = 0.6047 | 1110.07 ± 0.43 | 1104.31 ± 0.43 | 1098.62 ± 0.43 | 1093.31 ± 0.43 | 1088.6 ± 0.43 | 1490.9 ± 9.1 | 1464.9 ± 8.9
x2 = 0.7041 | 1092.58 ± 0.43 | 1087.09 ± 0.42 | 1081.73 ± 0.42 | 1076.67 ± 0.42 | 1072.12 ± 0.42 | 1495.6 ± 9.1 | 1470.1 ± 8.9
x2 = 0.8031 | 1074.51 ± 0.42 | 1069.49 ± 0.42 | 1064.51 ± 0.42 | 1059.84 ± 0.42 | 1055.47 ± 0.42 | 1500.6 ± 9.1 | 1475.4 ± 9
x2 = 0.9017 | 1056 ± 0.41 | 1051.53 ± 0.41 | 1047 ± 0.41 | 1042.77 ± 0.41 | 1038.7 ± 0.41 | 1506 ± 9.2 | 1481 ± 9

Nc1ccccc1 [aniline]
[1]
Settings | mass density [kg/m3] | speed of sound [m/s]
303.15 K | 1012.78 ± 0.4 | 1615 ± 2
308.15 K | 1008.64 ± 0.4 | –
313.15 K | 1004.49 ± 0.4 | 1578 ± 2
318.15 K | 1000.36 ± 0.4 | –
323.15 K | 996.43 ± 0.4 | –

Nc1ccccc1 [aniline] + OCc1ccccc1
[2]
Settings | mass density, 303.15 K [kg/m3] | mass density, 308.15 K [kg/m3] | mass density, 313.15 K [kg/m3] | mass density, 318.15 K [kg/m3] | mass density, 323.15 K [kg/m3] | speed of sound, 303.15 K [m/s] | speed of sound, 313.15 K [m/s]
x2 = 0.0895 | 1015.86 ± 0.4 | 1011.46 ± 0.4 | 1007.17 ± 0.4 | 1003.04 ± 0.4 | 999.07 ± 0.4 | 1605.7 ± 9.8 | 1570.1 ± 9.5
x2 = 0.181 | 1018.68 ± 0.41 | 1014.15 ± 0.4 | 1009.79 ± 0.4 | 1005.68 ± 0.4 | 1001.68 ± 0.4 | 1596.1 ± 9.7 | 1561.9 ± 9.5
x2 = 0.2748 | 1021.37 ± 0.41 | 1016.76 ± 0.41 | 1012.36 ± 0.4 | 1008.28 ± 0.4 | 1004.27 ± 0.4 | 1586.4 ± 9.6 | 1553.5 ± 9.4
x2 = 0.3709 | 1023.88 ± 0.41 | 1019.29 ± 0.41 | 1014.9 ± 0.41 | 1010.83 ± 0.4 | 1006.82 ± 0.4 | 1576.5 ± 9.6 | 1544.9 ± 9.4
x2 = 0.4693 | 1026.28 ± 0.41 | 1021.76 ± 0.41 | 1017.36 ± 0.41 | 1013.33 ± 0.41 | 1009.35 ± 0.4 | 1566.6 ± 9.5 | 1536 ± 9.3
x2 = 0.5701 | 1028.61 ± 0.41 | 1024.17 ± 0.41 | 1019.82 ± 0.41 | 1015.83 ± 0.41 | 1011.87 ± 0.41 | 1556.3 ± 9.5 | 1526.9 ± 9.3
x2 = 0.6735 | 1030.85 ± 0.41 | 1026.55 ± 0.41 | 1022.24 ± 0.41 | 1018.31 ± 0.41 | 1014.35 ± 0.41 | 1545.9 ± 9.4 | 1517.5 ± 9.2
x2 = 0.7796 | 1033.02 ± 0.41 | 1028.88 ± 0.41 | 1024.64 ± 0.41 | 1020.74 ± 0.41 | 1016.84 ± 0.41 | 1535.2 ± 9.3 | 1507.8 ± 9.2
x2 = 0.8884 | 1035.14 ± 0.41 | 1031.18 ± 0.41 | 1027.03 ± 0.41 | 1023.15 ± 0.41 | 1019.33 ± 0.41 | 1523.9 ± 9.3 | 1497.7 ± 9.1

Nc1ccccc1Cl [2-chlorobenzeneamine]
[1]
Settings | mass density [kg/m3] | speed of sound [m/s]
303.15 K | 1202.38 ± 0.54 | 1468 ± 2
308.15 K | 1197.56 ± 0.54 | –
313.15 K | 1192.97 ± 0.54 | 1437 ± 2
318.15 K | 1187.92 ± 0.53 | –
323.15 K | 1183.26 ± 0.53 | –

OCc1ccccc1 [benzenemethanol]
[1]
Settings | mass density [kg/m3] | speed of sound [m/s]
303.15 K | 1037.18 ± 0.14 | 1512 ± 2
308.15 K | 1033.45 ± 0.14 | –
313.15 K | 1029.36 ± 0.14 | 1487 ± 2
318.15 K | 1025.57 ± 0.14 | –
323.15 K | 1021.78 ± 0.14 | –

CN(C)c1ccccc1 [N,N-dimethylaniline]
[1]
Settings | mass density [kg/m3] | speed of sound [m/s]
303.15 K | 948.18 ± 0.41 | 1470 ± 2
308.15 K | 943.55 ± 0.41 | –
313.15 K | 939.78 ± 0.41 | 1432 ± 2
318.15 K | 935.3 ± 0.41 | –
323.15 K | 931.45 ± 0.41 | –

Nc1cccc(Cl)c1 [3-chlorobenzenamine] + OCc1ccccc1
[2]
Settings | mass density, 303.15 K [kg/m3] | mass density, 308.15 K [kg/m3] | mass density, 313.15 K [kg/m3] | mass density, 318.15 K [kg/m3] | mass density, 323.15 K [kg/m3] | speed of sound, 303.15 K [m/s] | speed of sound, 313.15 K [m/s]
x2 = 0.1021 | 1189.69 ± 0.54 | 1184.95 ± 0.54 | 1180.24 ± 0.54 | 1175.53 ± 0.54 | 1170.9 ± 0.53 | 1515.4 ± 9.3 | 1484.3 ± 9.1
x2 = 0.2037 | 1173.42 ± 0.51 | 1168.65 ± 0.51 | 1163.79 ± 0.51 | 1159.09 ± 0.51 | 1154.36 ± 0.5 | 1514.9 ± 9.3 | 1484.6 ± 9.1
x2 = 0.3048 | 1156.94 ± 0.49 | 1152.15 ± 0.49 | 1147.27 ± 0.48 | 1142.57 ± 0.48 | 1137.82 ± 0.48 | 1514.5 ± 9.2 | 1484.9 ± 9.1
x2 = 0.4055 | 1140.31 ± 0.47 | 1135.57 ± 0.46 | 1130.63 ± 0.46 | 1125.95 ± 0.46 | 1121.26 ± 0.46 | 1514.1 ± 9.2 | 1485.2 ± 9.1
x2 = 0.5057 | 1123.48 ± 0.45 | 1118.82 ± 0.45 | 1113.94 ± 0.45 | 1109.34 ± 0.45 | 1104.71 ± 0.44 | 1513.7 ± 9.2 | 1485.5 ± 9.1
x2 = 0.6054 | 1106.48 ± 0.44 | 1101.95 ± 0.44 | 1097.12 ± 0.43 | 1092.63 ± 0.43 | 1088.14 ± 0.43 | 1513.3 ± 9.2 | 1485.8 ± 9.1
x2 = 0.7048 | 1089.33 ± 0.43 | 1084.96 ± 0.43 | 1080.3 ± 0.42 | 1075.88 ± 0.42 | 1071.54 ± 0.42 | 1512.9 ± 9.2 | 1486.1 ± 9
x2 = 0.8036 | 1072.05 ± 0.42 | 1067.86 ± 0.42 | 1063.4 ± 0.42 | 1059.13 ± 0.42 | 1054.96 ± 0.42 | 1512.6 ± 9.2 | 1486.4 ± 9
x2 = 0.902 | 1054.66 ± 0.41 | 1050.79 ± 0.41 | 1046.44 ± 0.41 | 1042.37 ± 0.41 | 1038.37 ± 0.41 | 1512.3 ± 9.2 | 1486.7 ± 9
